Experimental data published in article PMC12406203 (Journal of Medicinal Chemistry, 2025).

How the values were obtained:
PLK4 = target: T1, PLK4 (Homo sapiens, UniProt O00444); assay: KINOMEscan; format: binding
T1 construct: purchased Eurofins DiscoverX, LLC; host or cells: E. coli BL21-derived host (T7 phage) or HEK-293
T1 sequence (O00444 1-970): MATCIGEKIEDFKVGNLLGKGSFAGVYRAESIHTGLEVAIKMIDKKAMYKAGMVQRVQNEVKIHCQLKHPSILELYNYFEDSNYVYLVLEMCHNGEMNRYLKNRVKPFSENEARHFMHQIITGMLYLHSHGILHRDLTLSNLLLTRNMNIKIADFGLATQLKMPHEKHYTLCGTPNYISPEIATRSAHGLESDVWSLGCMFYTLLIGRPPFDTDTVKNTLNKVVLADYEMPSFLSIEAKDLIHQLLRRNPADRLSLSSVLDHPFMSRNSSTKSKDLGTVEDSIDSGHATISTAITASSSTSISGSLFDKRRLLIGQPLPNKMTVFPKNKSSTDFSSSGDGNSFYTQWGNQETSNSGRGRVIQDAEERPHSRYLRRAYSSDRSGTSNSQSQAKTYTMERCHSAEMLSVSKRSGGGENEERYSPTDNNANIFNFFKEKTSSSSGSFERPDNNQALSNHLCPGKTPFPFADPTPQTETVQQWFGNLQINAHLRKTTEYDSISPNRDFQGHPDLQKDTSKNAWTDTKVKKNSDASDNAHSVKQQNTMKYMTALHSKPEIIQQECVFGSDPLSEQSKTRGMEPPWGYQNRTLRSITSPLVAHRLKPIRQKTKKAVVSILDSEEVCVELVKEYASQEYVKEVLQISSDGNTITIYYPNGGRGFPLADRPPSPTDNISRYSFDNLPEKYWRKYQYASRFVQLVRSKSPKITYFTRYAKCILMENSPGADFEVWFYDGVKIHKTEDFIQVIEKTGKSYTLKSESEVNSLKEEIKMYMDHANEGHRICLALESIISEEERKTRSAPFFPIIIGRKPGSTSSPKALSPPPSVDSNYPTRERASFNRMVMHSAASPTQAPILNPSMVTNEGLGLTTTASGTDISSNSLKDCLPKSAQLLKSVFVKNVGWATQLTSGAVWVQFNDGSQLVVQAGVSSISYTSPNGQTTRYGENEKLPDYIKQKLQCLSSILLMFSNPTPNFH

TIE2 = target: T2, TIE2 (Homo sapiens, UniProt Q02763); assay: KINOMEscan; format: binding
T2 construct: purchased Eurofins DiscoverX, LLC; host or cells: E. coli BL21-derived host (T7 phage) or HEK-293

MAP3K4 = target: T3, MAP3K4 (Homo sapiens, UniProt Q9Y6R4); assay: KINOMEscan; format: binding
T3 construct: purchased Eurofins DiscoverX, LLC; host or cells: E. coli (BL21-derived, T7 phage) or HEK-293

TSSK1B = target: T4, TSSK1B (Homo sapiens, UniProt Q9BXA7); assay: KINOMEscan; format: binding
T4 construct: purchased Eurofins DiscoverX, LLC; host or cells: E. coli BL21-derived host (T7 phage) or HEK-293
T4 sequence (Q9BXA7 1-367): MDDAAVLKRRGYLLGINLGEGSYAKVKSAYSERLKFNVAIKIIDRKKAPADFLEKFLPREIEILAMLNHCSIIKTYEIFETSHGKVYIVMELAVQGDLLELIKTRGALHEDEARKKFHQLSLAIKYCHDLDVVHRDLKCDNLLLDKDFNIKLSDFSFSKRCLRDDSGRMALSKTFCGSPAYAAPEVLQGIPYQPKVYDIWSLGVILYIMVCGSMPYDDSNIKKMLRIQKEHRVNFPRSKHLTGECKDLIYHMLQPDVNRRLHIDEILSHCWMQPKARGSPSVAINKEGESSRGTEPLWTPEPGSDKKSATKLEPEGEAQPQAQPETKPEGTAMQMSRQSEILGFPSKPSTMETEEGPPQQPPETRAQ

PIK3CG = target: T5, PIK3CG (Homo sapiens, UniProt P48736); assay: KINOMEscan; format: binding
T5 construct: purchased Eurofins DiscoverX, LLC; host or cells: E. coli BL21-derived host (T7 phage) or HEK-293

MEK2 = target: T6, MEK2 (Homo sapiens, UniProt P36507); assay: KINOMEscan; format: binding
T6 construct: purchased Eurofins DiscoverX, LLC; host or cells: E. coli (BL21-derived, T7 phage) or HEK-293

KIT = target: T7, KIT (Homo sapiens, UniProt P10721); assay: KINOMEscan; format: binding
T7 construct: purchased Eurofins DiscoverX, LLC; host or cells: E. coli (BL21-derived, T7 phage) or HEK-293

MET = target: T8, MET (Homo sapiens, UniProt P08581); assay: KINOMEscan; format: binding
T8 construct: purchased Eurofins DiscoverX, LLC; host or cells: E. coli (BL21-derived, T7 phage) or HEK-293

AKT2 = target: T9, AKT2 (Homo sapiens, UniProt P31751); assay: KINOMEscan; format: binding
T9 construct: purchased Eurofins DiscoverX, LLC; host or cells: E. coli BL21-derived (T7 phage) or HEK-293

KIT(D816V) = target: T10, KIT(D816V) (Homo sapiens, UniProt P10721, D816V); assay: KINOMEscan; format: binding
T10 construct: purchased Eurofins DiscoverX, LLC; host or cells: E. coli (BL21-derived, T7 phage) or HEK-293

VEGFR2 = target: T11, VEGFR2 (Homo sapiens, UniProt P35968); assay: KINOMEscan; format: binding
T11 construct: purchased Eurofins DiscoverX, LLC; host or cells: E. coli BL21-derived host (T7 phage) or HEK-293

ABL1-phosphorylated = target: T12, ABL1-phosphorylated (Homo sapiens, UniProt P00519); assay: KINOMEscan; format: binding
T12 construct: purchased Eurofins DiscoverX, LLC; host or cells: E. coli BL21-derived (T7 phage) or HEK-293
T12 sequence (P00519 whole entry): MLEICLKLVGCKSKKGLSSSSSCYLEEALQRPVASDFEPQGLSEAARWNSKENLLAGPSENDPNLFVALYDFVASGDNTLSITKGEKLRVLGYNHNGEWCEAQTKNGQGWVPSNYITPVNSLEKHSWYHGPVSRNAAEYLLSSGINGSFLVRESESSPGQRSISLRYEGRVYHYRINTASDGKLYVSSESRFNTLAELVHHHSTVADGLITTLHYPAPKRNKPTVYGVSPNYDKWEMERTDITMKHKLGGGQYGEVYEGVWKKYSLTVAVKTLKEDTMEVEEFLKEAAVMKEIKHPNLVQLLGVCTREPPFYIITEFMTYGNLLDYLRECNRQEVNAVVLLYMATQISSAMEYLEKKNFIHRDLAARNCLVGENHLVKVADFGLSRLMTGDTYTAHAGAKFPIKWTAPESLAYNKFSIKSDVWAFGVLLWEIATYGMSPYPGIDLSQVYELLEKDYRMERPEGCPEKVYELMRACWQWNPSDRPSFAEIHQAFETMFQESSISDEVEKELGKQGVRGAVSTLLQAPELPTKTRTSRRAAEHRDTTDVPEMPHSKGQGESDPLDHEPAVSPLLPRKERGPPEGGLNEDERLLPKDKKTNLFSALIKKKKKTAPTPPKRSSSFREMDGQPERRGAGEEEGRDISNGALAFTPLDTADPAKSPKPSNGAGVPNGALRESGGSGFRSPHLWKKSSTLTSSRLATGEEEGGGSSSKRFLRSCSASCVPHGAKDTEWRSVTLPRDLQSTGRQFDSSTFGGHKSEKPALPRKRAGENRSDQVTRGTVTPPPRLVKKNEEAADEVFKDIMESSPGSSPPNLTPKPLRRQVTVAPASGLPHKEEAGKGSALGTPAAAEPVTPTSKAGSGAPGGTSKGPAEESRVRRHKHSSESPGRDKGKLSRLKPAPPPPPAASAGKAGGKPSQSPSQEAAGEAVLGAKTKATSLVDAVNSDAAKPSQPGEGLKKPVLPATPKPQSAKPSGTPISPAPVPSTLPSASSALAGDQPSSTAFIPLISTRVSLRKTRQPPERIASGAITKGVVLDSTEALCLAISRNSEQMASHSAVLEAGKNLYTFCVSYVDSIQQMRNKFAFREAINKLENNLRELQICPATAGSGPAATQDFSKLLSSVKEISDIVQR

T6 sequence (P36507 whole entry): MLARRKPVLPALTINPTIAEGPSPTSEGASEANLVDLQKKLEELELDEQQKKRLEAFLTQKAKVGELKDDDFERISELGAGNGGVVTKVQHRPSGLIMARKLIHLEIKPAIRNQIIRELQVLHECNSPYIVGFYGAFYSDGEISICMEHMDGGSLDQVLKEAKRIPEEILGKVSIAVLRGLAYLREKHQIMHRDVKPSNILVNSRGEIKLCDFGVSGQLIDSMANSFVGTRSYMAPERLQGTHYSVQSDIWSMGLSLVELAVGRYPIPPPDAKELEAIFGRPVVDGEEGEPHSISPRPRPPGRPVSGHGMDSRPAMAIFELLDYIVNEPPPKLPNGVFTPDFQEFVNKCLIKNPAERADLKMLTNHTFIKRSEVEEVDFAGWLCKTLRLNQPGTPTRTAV
T3 sequence (Q9Y6R4 whole entry): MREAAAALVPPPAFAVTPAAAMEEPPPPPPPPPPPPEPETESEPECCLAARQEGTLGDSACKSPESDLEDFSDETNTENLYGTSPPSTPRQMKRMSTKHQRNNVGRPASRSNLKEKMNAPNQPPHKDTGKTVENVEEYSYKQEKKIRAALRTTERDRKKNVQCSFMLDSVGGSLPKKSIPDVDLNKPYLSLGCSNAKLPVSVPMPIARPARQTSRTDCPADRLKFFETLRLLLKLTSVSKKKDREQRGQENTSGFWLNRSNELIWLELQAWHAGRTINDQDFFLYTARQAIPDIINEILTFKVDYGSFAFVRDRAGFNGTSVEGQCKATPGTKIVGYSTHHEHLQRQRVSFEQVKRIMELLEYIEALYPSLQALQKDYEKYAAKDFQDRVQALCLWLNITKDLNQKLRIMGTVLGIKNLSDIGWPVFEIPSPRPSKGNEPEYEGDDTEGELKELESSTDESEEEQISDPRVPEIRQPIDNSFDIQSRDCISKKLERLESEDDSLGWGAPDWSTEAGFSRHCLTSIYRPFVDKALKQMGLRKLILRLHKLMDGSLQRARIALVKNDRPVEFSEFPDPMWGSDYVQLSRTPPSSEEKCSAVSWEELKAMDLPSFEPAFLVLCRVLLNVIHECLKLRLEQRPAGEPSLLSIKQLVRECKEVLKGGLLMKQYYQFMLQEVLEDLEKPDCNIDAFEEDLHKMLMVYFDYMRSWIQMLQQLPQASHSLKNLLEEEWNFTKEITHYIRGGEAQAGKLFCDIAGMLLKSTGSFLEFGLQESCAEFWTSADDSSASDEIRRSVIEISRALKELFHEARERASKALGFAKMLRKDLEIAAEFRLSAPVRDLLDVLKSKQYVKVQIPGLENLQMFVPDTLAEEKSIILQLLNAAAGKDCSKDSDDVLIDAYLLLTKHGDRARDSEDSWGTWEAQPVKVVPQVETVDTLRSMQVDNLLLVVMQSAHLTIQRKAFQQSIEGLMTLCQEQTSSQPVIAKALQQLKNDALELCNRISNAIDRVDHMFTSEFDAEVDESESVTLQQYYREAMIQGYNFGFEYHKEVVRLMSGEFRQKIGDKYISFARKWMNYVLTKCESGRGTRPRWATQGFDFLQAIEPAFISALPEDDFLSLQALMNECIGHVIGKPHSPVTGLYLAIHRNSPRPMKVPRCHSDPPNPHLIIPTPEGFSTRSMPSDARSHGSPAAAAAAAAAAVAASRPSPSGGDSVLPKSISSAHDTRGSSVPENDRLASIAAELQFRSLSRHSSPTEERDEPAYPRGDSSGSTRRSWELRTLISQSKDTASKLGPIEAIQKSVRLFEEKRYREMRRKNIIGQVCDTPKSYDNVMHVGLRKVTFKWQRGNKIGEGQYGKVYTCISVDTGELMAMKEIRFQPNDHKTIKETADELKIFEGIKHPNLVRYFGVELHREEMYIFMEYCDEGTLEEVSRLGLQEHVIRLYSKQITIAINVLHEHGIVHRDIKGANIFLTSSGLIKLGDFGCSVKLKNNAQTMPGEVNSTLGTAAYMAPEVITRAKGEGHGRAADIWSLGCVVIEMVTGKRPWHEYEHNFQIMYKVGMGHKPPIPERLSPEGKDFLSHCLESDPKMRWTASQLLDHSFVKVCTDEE
T7 sequence (P10721 26-976): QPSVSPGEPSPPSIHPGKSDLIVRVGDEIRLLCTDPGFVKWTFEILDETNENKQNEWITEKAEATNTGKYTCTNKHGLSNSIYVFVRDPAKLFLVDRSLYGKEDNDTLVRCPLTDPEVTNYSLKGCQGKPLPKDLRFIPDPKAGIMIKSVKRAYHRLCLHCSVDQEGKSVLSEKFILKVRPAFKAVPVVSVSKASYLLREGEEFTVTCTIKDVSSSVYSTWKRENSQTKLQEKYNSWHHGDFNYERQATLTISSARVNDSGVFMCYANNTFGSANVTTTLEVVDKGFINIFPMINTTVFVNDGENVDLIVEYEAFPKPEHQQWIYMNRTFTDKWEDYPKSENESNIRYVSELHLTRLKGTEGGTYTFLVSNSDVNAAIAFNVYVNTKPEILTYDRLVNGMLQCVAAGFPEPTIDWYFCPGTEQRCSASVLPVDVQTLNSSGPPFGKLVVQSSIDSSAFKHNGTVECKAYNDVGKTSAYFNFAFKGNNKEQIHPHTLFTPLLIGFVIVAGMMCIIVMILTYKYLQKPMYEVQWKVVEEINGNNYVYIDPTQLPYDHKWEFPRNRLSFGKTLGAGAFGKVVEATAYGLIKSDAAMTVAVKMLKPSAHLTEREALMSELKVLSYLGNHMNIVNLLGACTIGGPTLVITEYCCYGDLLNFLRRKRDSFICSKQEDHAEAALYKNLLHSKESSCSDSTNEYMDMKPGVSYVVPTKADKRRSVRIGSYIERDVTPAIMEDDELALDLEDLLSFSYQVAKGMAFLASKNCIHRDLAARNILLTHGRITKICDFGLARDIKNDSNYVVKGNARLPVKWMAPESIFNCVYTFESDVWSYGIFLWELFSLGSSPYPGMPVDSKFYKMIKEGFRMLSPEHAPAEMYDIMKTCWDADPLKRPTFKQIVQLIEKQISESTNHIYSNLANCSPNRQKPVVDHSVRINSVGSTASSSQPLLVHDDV
T9 sequence (P31751 whole entry): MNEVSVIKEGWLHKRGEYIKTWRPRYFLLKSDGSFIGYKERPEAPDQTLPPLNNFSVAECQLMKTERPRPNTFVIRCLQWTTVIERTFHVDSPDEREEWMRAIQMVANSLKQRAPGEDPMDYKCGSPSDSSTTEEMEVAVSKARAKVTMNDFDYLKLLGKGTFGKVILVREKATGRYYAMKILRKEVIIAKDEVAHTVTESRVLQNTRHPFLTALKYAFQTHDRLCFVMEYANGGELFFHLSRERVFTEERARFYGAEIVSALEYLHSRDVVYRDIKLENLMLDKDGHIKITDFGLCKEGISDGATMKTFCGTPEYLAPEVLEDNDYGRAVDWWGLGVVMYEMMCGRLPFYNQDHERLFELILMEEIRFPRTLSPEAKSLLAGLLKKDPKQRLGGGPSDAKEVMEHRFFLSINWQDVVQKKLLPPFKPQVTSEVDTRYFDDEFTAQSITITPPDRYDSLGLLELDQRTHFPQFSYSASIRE
T10 sequence (P10721 26-976 D816V): as the sequence (P10721 26-976) above, with D791V counted along it

SMILES	RA @ 1000nM (PLK4) [%]	RA @ 10000nM (PLK4) [%]	RA @ 1000nM (TIE2) [%]	RA @ 10000nM (TIE2) [%]	RA @ 1000nM (MAP3K4) [%]	RA @ 10000nM (MAP3K4) [%]	RA @ 1000nM (TSSK1B) [%]	RA @ 10000nM (TSSK1B) [%]	RA @ 1000nM (PIK3CG) [%]	RA @ 10000nM (PIK3CG) [%]	RA @ 1000nM (MEK2) [%]	RA @ 10000nM (MEK2) [%]	RA @ 1000nM (KIT) [%]	RA @ 10000nM (KIT) [%]	RA @ 1000nM (MET) [%]	RA @ 10000nM (MET) [%]	RA @ 1000nM (AKT2) [%]	RA @ 10000nM (AKT2) [%]	RA @ 1000nM (KIT(D816V)) [%]	RA @ 10000nM (KIT(D816V)) [%]	also measured
CC(C)Cn1ncc2cc(Cc3ccc(F)cc3F)c(C(=O)NCCN(C)C)cc21 [Compound 94, 5-(2,4-Difluorobenzyl)-N-(2-(dimethylamino)ethyl)-1-isobutyl-1H-indazole-6-carboxamide]	100	100	100	100	49	100	77	89	86	85	86	80	100	100	96	100	89	76	94	100	RA @ 1000nM (VEGFR2): 100%; RA @ 10000nM (VEGFR2): 100%; RA @ 1000nM (ABL1-phosphorylated): 79%; RA @ 10000nM (ABL1-phosphorylated): 53%; RA @ 1000nM (DCAMKL1): 100%; RA @ 10000nM (DCAMKL1): 100%
CN(C)CCNC(=O)c1cc2c(cnn2CC2CCCCC2)cc1Cc1ccc(F)cc1F [Compound 95, 1-(Cyclohexylmethyl)-5-(2,4-difluorobenzyl)-N-(2-(dimethylamino)ethyl)-1H-indazole-6-carboxamide]	100	100	90	100	100	60	100	79	92	97	95	100	100	100	100	100	100	88	96	94	RA @ 1000nM (VEGFR2): 100%; RA @ 10000nM (VEGFR2): 100%; RA @ 1000nM (ABL1-phosphorylated): 81%; RA @ 10000nM (ABL1-phosphorylated): 85%; RA @ 1000nM (DCAMKL1): 100%; RA @ 10000nM (DCAMKL1): 100%
